Experimental data: patent US20120010229A1, “THERAPEUTIC REGIMENS FOR HEDGEHOG-ASSOCIATED CANCERS” (priority 2010, published 2012)
“Also recorded” adds a separate entry of the source.

Assays:
wild type human SMO = molecular target: T1, wild type human SMO (Homo sapiens, UniProt Q99835); assay: Gli-luciferase reporter assay, C3H10T1/2 cells transfected with wild type SMO; format: cell-based, mouse
T1 construct: host or cells: C3H10T1/2 cells (ATCC CCL-226), mouse
Description: Wild type human SMO was subcloned into pcDNA3.1 from an expression construct in pCMV6 (Origene #SC122724). D473H SMO was then generated by site-directed mutagenesis using the Stratagene QuikChange kit (Agilent #200519) and sequence verified.
Gli-Luciferase reporter assays were performed as described. (Yauch et al. (2009) Science 326: 572-574) Briefly, C3H10 T1/2 cells (ATCC, #CCL-226) were plated in six-well plates at 1×10 to 5th cells per well in BME (Gibco #21010) with 10% FBS (Hyclone #SH30070.03), 2 mM Glutamine (Gibco #25030) and 50 units penicillin/50 ug streptomycin (Gibco #15140). The next morning, cells were transfected with 400 ng SMO expression construct, 400 ng 8× Gli-Luc, and 200 ng pRL-TK per well with GeneJuice transfection reagent (Novagen #70967). Cells in each well were lifted six hours later and replated into four wells of a 12 well plate and allowed to attach overnight. Medium was then changed to low (0.5%) serum and compounds were added in quadruplicate in a range of concentrations. After a 48 hour incubation, firefly and renilla luciferase were assayed using the Promega Dual-Glo Luciferase Assay System (Promega #E2940) and ratios were used to determine percent of control using Prism graphing software.

[1] = tested on: primary serous ovarian cancer xenograft; assay: Primary serous ovarian cancer xenograft, post carboplatin/taxol; format: in vivo, NOD/SCID mice
Description: The effects of IPI-926 were examined following carboplatin/taxol combination chemotherapy in a series of primary ovarian cancer xenograft models.
1) IPI-926 was given daily, oral at 40 mg/kg
2) The taxol/carboplatinum was given: • a. Intraperitoneal Carboplatinum 50 mg/kg every 7 days • b. Intraperitoneal Paclitaxel 15 mg/kg every 7 days
Days of carboplatin/taxol and IPI-926 administration are indicated by the arrows. […] The inhibitory effects of IPI-926 persisted after discontinuing administration of IPI-926. Thus, IPI-926 can be useful as maintenance therapy in ovarian cancer.
Excess ovarian tumor tissue from patients was collected. Histologically confirmed papillary serous ovarian tumors was disaggregated into purified tumor cells devoid of hematologic components. These cells were suspended in a 1:1 PBS:Matrigel®. A suspension of a specified number of cells was injected subcutaneously (SC) into 6 week old NOD/SCID mice (NOD/LtSz-Prkdcscid/J; 6-8 weeks; Jackson Labs). The mice were housed and maintained in accordance with the institutional guidelines and tumor formation in the injected animals is monitored regularly. Subcutaneous tumors were measured weekly with calipers, and the volume (in mm^3) was determined using the formula: [length (mm)×width (mm)×width (mm)]/2. Animals were euthanized when they become moribund or had evident excessive tumor burden. For continued propagation in mice, the generated tumors were excised and processed as described for the primary tumor samples, depleted of mouse H2 Kd+ cells (MACS beads) and re-injected subcutaneously into new recipient NOD/SCID mice. All tumor cells utilized for these experiments underwent at least 3 passages to ensure the presence of a tumor initiating population. Histology of each generation was evaluated to confirm the maintenance of papillary serous histology.
Following serial transplantation, a minimum of 40 tumor-bearing mice (300-600 mm^3) were treated with vehicle or paclitaxel (15 mg/kg) and carboplatinum (50 mg/kg) (T/C) IP q 7 days. […] Tumor volume and mouse weights were regularly assessed. […]

[2] = tested on: Ptc^C/C medulloblastoma flank allografts; assay: Ptc^C/C medulloblastoma flank allografts (tumor take and response); format: in vivo, mouse
Description: Animal experiments were performed in accordance with the NIH Guide for the Care and Use of Experimental Animals with approval from the Institutional Animal Care and Use Committee. Freshly excised medulloblastoma tumors from symptomatic Ptc^C/C mice were placed in cooled phosphate buffered saline (PBS), minced with a scalpel, and filtered through a 100 μm cell strainer (BD Bioscience, San Jose, Calif.). The cells were pelleted at 1000 rpm for 5 minutes at 4° C., and resuspended in equal parts DMEM and Matrigel (BD Biosciences, San Diego, Calif.). Recipient mice (wild type littermates) were anesthetized with isoflurane and a suspension of 1×10^6 cells in total volume of 200 μL was injected subcutaneously into the flank using a 30G needle. Tumor growth was measured in two dimensions using digital calipers every 24-48 hours, and the tumor volumes were calculated according to the following formula: 0.5×length×width^2, with width being the smaller of the two dimensions measured. Tumors greater than 2.5 cm in length were harvested and either snap-frozen or fixed in 10% formalin.
To confirm this, aliquots of 1 million cells from the cerebellar tumors of 9 donor Ptc^C/C mice were transplanted to the flanks of 110 recipients.
Recipient mice bearing drug-naïve and IPI-926 treated allograft tumors were then treated with daily IPI-926 (20 mg/kg) and tumor growth was monitored via caliper measurements. […] When tumor volumes reached […], recipient mice then received either daily IPI-926 (20 mg/kg) or vehicle treatment, and the growth of flank allografts was monitored over a nine-week period. […] Half of the allograft mice from drug-treated donors were taken off drug after five weeks of IPI-926 treatment, and the other half received continuous IPI-926 for the nine-week study period. Mice from both groups were monitored for the entire 9-week period.

T1 sequence (Q99835 28-787): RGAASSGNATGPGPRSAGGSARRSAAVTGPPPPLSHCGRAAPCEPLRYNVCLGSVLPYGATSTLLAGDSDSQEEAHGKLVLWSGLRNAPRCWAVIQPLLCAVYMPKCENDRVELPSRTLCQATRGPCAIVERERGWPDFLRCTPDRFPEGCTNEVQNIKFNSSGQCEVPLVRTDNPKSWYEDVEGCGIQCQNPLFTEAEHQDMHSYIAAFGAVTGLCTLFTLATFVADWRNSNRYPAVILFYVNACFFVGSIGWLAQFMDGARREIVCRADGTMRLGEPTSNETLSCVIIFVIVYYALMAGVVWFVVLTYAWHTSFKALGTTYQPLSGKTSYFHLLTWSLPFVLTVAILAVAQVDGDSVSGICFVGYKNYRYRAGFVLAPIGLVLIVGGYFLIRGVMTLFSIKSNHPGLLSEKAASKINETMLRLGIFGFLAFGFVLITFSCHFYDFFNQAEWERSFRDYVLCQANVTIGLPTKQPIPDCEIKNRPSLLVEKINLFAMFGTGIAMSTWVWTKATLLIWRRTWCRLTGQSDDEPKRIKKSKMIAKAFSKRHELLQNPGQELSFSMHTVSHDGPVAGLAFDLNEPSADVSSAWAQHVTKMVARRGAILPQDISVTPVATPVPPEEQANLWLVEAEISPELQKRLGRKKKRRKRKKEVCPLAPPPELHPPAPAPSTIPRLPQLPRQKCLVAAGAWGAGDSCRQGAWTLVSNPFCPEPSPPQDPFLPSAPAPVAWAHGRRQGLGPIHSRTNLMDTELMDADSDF

Structure (SMILES): CC1=C2C[C@H]3[C@@H](CC[C@@H]4C[C@H](NS(C)(=O)=O)CC[C@@]43C)[C@@H]2CC[C@@]2(C1)O[C@@H]1C[C@H](C)CN[C@H]1[C@H]2C [IPI-926]
- IC50 (wild type human SMO): 9 nM
- percent tumor volume, IPI-926 alone ([1]; after 20 days of treatment, vs control treated mice): smaller percent tumor volume (p<0.007)
- tumor volume after cessation of carboplatin/taxol chemotherapy ([1]; carboplatin/taxol followed by IPI-926 40 mg/kg oral, vs followed by vehicle, 40 mg/kg): prolonged duration of the tumor inhibition; also recorded: smaller percent tumor volume (p<0.02)
- mGLI-1 mRNA in tumor ([1]; primary xenograft model of ovarian cancer): modulate mGLI-1
- tumor re-growth on continuous IPI-926 ([2]; allografts from drug-treated donors, continuous IPI-926 for nine weeks): no tumors re-grew
- tumors that re-grew after going off drug ([2]; allografts from drug-treated donors, off drug after five weeks, monitored 9 weeks): 1 of 6
- allograft tumors undetectable by caliper measurements ([2]; daily IP 20 mg/kg, both allograft groups (drug-naive and IPI-926 treated donors)): 100%
- flank tumor take in recipients (tumor initiating capacity) ([2]; donors treated daily 20 mg/kg for 6 weeks before transplantation, drug-naive donors 40 of the 110, P=0.017): 9 of 51
- tumors that progressed while on therapy ([2]; flank allografts from drug-naive donors, 9-week trial): Forty percent
